Test results from patent US20260144798A1, “Disruption of Vascular Smooth Muscle Relaxation by Carfilzomib May be the Primary Reason for CFZ-Induced Vascular Dysfunction” (AMGEN INC., priority 2019, published 2026).
Where two headings read alike, the source gives them in different places.

Assays:
rat aortic rings [1] = test: Acetylcholine-induced relaxation of phenylephrine-precontracted rat aortic rings; details: for prevention of CFZ induced vascular dysfunction in the presence of ACh: inhibitor 10 mins before 2.7 μM CFZ for 1 hour, 1 μM Phenylephrine precontraction (FIG. 8A, 9A); for EC50 for ACh-induced relaxation, CFZ in combination with PDE5 inhibitor: PDE5 inhibitor 30 nM, 10-minute pre-treatment before CFZ, CFZ alone 7.3×10^−8, vehicle alone 1.9×10^−8 (FIG. 5B)
Protocol: (§3) For assessment of the effect of CFZ on vascular relaxation, the pre-treated aortic rings were incubated with 1 μM PE for 20 minutes to induce contraction. For experiments involving sildenafil and tadalafil, a 10-minute pre-treatment with 30 nM of these smooth muscle relaxants was done prior to the incubation with CFZ. After reaching a stable contraction, ACh, sodium nitroprusside (SNP), nifedipine, riociguat, or cinaciguat was added to the chamber at an increasing concentration from 100 pM to 10 μM; each stepwise concentration increase was added after the response to the current concentration reached a plateau. The relaxation was continuously measured and plotted as percent relaxation normalized to the response with 1 μM PE.
(§4) Aortas were isolated from 8-10 week old CD® (Sprague Dawley) rats (from Charles River Laboratories) in an ice-cold, oxygenated (95% O2, 5% CO2) Krebs-Henseleit buffer. The aortas were then carefully cleaned to remove perivascular fat and cut into 2-mm rings that were mounted between two stainless steel wires in the myograph chamber containing 8 mL of Krebs-Henseleit buffer in 95% O2 and 5% CO2 at 37° C. Rings were stretch until a final stretch of 10 mN (Newton) was reached and incubated for 30 mins for equilibration.

rat aortic rings [2] = test: Sodium nitroprusside-induced relaxation of phenylephrine-precontracted rat aortic rings; details: for prevention of CFZ induced vascular dysfunction in the presence of SNP: inhibitor 10 mins before 2.7 μM CFZ for 1 hour, 1 μM Phenylephrine precontraction (FIG. 8B, 9B)
Protocol: as §3, §4

rat aortic rings [3] = test: Angiotensin induced contraction (AUC) of rat aortic rings; details: inhibitor 10 mins before 2.7 μM CFZ 1.5 hour; 30 nM Angiotensin (FIG. 11)
Protocol: Aortas were isolated from 8-10 week old CD® (Sprague Dawley) rats (from Charles River Laboratories) in an ice-cold, oxygenated (95% O2, 5% CO2) Krebs-Henseleit buffer. The aortas were then carefully cleaned to remove perivascular fat and cut into 2-mm rings that were mounted between two stainless steel wires in the myograph chamber containing 8 mL of Krebs-Henseleit buffer in 95% O2 and 5% CO2 at 37° C. Rings were stretch until a final stretch of 10 mN (Newton) was reached and incubated for 30 mins for equilibration. The rings were constricted with 8 mL of 80 mM KPSS for 15 minutes, followed by 3 washes with the Krebs-Henseleit buffer until the force returned to the baseline stretch. The aorta were then treated for one of the following experiments: • For protein expression studies the aortic rings were pre-treated with 100 μM N(gamma)-nitro-L-arginine methyl ester (L-NAME; Sigma-Aldrich) and 10 μM indomethacin for 10 minutes prior to the pre-incubation with CFZ (Amgen Inc.) for 1.5 hours.
Following the two incubation the rings were treated with either vehicle or 2.7 μM CFZ for further 1.5 hours before addition of 30 nM Angiotensin for 30 min. Angiotensin induced transient contraction which returned to the baseline in 30 mins. Area Under the Curve (AUC) of angiotensin induced contraction was measured.
Aortic rings were incubated for 10 min with 100 μM LNAME+10 μM indomethacin (endothelium derived relaxing agents blockers) for 10 mins followed by addition of 10 μM SB 203580 (p38 inhibitor) or PF3644022 (MAPKAPK-2 inhibitor) in some rings for 10 more mins as indicated. This was followed by addition of 2.7 μM CFZ in some rings as indicated for 1.5 hour. 30 nM Angiotensin was added for 30 min. Angiotensin induced transient contraction which returned to the baseline in 30 mins.

rat aortic rings [4] = test: Basal vascular tone of isolated rat aortic rings, isometric myograph; details: 10 μM SB 203580 10 mins before 2.7 μM CFZ for 3 hour; LNAME+indomethacin (FIG. 10)
Protocol: (§1) An isometric myograph (DMT 620M) was used for ex vivo measurement of vascular function. Eight-to 10-week old Sprague Dawley rats (purchased from Charles River Laboratories, Wilmington, MA) were first anesthetized with 3% isoflurane and then euthanized using inhaled desflurane. The aortas were isolated in an ice-cold, oxygenated (95% O2, 5% CO2) Krebs-Henseleit buffer (118.3 mM NaCl, 4.7 mM KCl, 1.2 mM MgSO4, 1.2 mM KH2PO4, 2.5 mM CaCl2, 25 mM NaHCO3, and 11.0 mM glucose; purchased from Sigma-Aldrich, St. Louis, MO). The thoracic aorta was carefully cleaned to remove perivascular fat and cut into 2-mm rings that were mounted between two stainless steel wires in the myograph chamber containing 8 mL of Krebs-Henseleit buffer in 95% O2 and 5% CO2 at 37° C. First, the rings were equilibrated in the chamber for 20 minutes, followed by a gradual increase of mechanical stretch until a final stretch of 10 mN (Newton) was reached. After an additional incubation with fresh buffer for 30 minutes, the rings were constricted with 8 mL of 80 mM KPSS (43 mM NaCl, 80 mM KCl, 2.5 mM CaCl2, 1.2 mM MgSO4, 1.2 mM KH2PO4, 25.0 mM NaHCO3, and 11.0 mM glucose) for 15 to 20 minutes, followed by 3 washes with the Krebs-Henseleit buffer until the force returned to the baseline stretch. The tension of the aortic rings was continuously measured with the Lab Chart 7 data acquisition system (ADInstruments, Colorado Springs, CO). In Some of the experiments the aortic rings were pre-treated with 100 μM N(gamma)-nitro-L-arginine methyl ester (L-NAME; Sigma-Aldrich) and 10 μM indomethacin for 10 minutes prior to the pre-incubation with CFZ (Amgen Inc.) for 2 hours. After an additional incubation with fresh buffer for 30 minutes, the rings were constricted with 8 mL of 80 mM KPSS (43 mM NaCl, 80 mM KCl, 2.5 mM CaCl2, 1.2 mM MgSO4, 1.2 mM KH2PO4, 25.0 mM NaHCO3, and 11.0 mM glucose) for 15 to 20 minutes, followed by 3 washes with the Krebs-Henseleit buffer until the force returned to the baseline stretch. The tension of the aortic rings was continuously measured with the Lab Chart 7 data acquisition system (ADInstruments, Colorado Springs, CO).
To assess the effect of CFZ on vascular contraction, the aortic rings were pre-treated with or without CFZ for 2 hours, followed by treatment with an increasing concentration of phenylephrine (PE) from 10 nM to 1 μM. After the maximum contraction was achieved, the aortic rings were washed 3 times until the force returned to baseline. The contraction was continuously measured and plotted as percent contraction normalized to the response of KPSS. […] The relaxation was continuously measured and plotted as percent relaxation normalized to the response with 1 μM PE. […]

rat aortic rings [5] = test: Nifedipine-induced relaxation of rat aortic rings; details: increasing concentration of nifedipine (FIG. 2C)
Protocol: An isometric myograph (DMT 620M) was used for ex vivo measurement of vascular function. Eight-to 10-week old Sprague Dawley rats (purchased from Charles River Laboratories, Wilmington, MA) were first anesthetized with 3% isoflurane and then euthanized using inhaled desflurane. The aortas were isolated in an ice-cold, oxygenated (95% O2, 5% CO2) Krebs-Henseleit buffer (118.3 mM NaCl, 4.7 mM KCl, 1.2 mM MgSO4, 1.2 mM KH2PO4, 2.5 mM CaCl2, 25 mM NaHCO3, and 11.0 mM glucose; purchased from Sigma-Aldrich, St. Louis, MO). […] The tension of the aortic rings was continuously measured with the Lab Chart 7 data acquisition system (ADInstruments, Colorado Springs, CO). […]
(§2) To assess the effect of CFZ on vascular contraction, the aortic rings were pre-treated with or without CFZ for 2 hours, followed by treatment with an increasing concentration of phenylephrine (PE) from 10 nM to 1 μM. […] The contraction was continuously measured and plotted as percent contraction normalized to the response of KPSS. […] The relaxation was continuously measured and plotted as percent relaxation normalized to the response with 1 μM PE.

rat aortic rings [6] = test: sGC activator (cinaciguat, riociguat)-induced relaxation of rat aortic rings; details: Rattus norvegicus
Protocol: as §1, with “In Some of the experiments the aortic rings were pre-treated with 100 μM N(gamma)-nitro-L-arginine methyl ester (L-NAME; Sigma-Aldrich) and 10 μM indomethacin for 10 minutes prior to the pre-incubation with CFZ (Amgen Inc.) for 2 hours. After an additional incubation with fresh buffer for 30 minutes, the rings were constricted with 8 mL of 80 mM KPSS (43 mM NaCl, 80 mM KCl, 2.5 mM CaCl2, 1.2 mM MgSO4, 1.2 mM KH2PO4, 25.0 mM NaHCO3, and 11.0 mM glucose) for 15 to 20 minutes, followed by 3 washes with the Krebs-Henseleit buffer until the force returned to the baseline stretch.” left out
as §2

Structure (SMILES) | prevention of CFZ induced vascular dysfunction in the presence of ACh (rat aortic rings [1]) | prevention of CFZ induced vascular dysfunction in the presence of SNP (rat aortic rings [2]) | prevention of CFZ-increased angiotensin induced contraction (rat aortic rings [3]) | EC50 for ACh-induced relaxation, CFZ in combination with PDE5 inhibitor (rat aortic rings [1]) | other results
Cc1ccc(-c2ccc3c(ccc4sc5c(c43)NC[C@@H](C)NC5=O)n2)cn1 [PF3644022] | prevented CFZ induced vascular dysfunction | prevented CFZ induced vascular dysfunction | prevented |  | 
C[S+]([O-])c1ccc(-c2nc(-c3ccncc3)c(-c3ccc(F)cc3)[nH]2)cc1 (centres unmarked) [SB203580] | prevented CFZ induced vascular dysfunction | prevented CFZ induced vascular dysfunction | prevented |  | prevention of CFZ induced increase in vascular tone (rat aortic rings [4]): completely prevented
COC(=O)C1=C(C)NC(C)=C(C(=O)OC)C1c1ccccc1[N+](=O)[O-] [nifedipine] |  |  |  |  | plateau of vascular relaxation (rat aortic rings [5]): around 50%
COC(=O)N(C)c1c(N)nc(-c2nn(Cc3ccccc3F)c3ncccc23)nc1N [riociguat] |  |  |  |  | EC50 (rat aortic rings [6]; rings pre-incubated with CFZ (FIG. 4C), read-out: EC50 for relaxation, sGC activator with CFZ): 17 nM; EC50 (rat aortic rings [6]; without CFZ (FIG. 4C), read-out: EC50 for relaxation, sGC activator alone): 18 nM
CCCc1nn(C)c2c(=O)[nH]c(-c3cc(S(=O)(=O)N4CCN(C)CC4)ccc3OCC)nc12 [sildenafil] |  |  |  | 2.8×10^−8 | reversal of CFZ effect on VSM relaxation in the presence of ACh (rat aortic rings [1]; 30 nM pre-treatment 10 minutes before CFZ (FIG. 5B)): reversed the CFZ effect on VSM relaxation; reversal of CFZ effect on VSM relaxation in the presence of SNP (rat aortic rings [2]; 30 nM pre-treatment 10 minutes before CFZ (FIG. 5A)): reversed the CFZ effect on VSM relaxation
CN1CC(=O)N2[C@H](c3ccc4c(c3)OCO4)c3[nH]c4ccccc4c3C[C@@H]2C1=O [tadalafil] |  |  |  | 2.8×10^−8 | 
